Data on four molecules can be found in patent US8906904B2, “Alkoxy pyrazoles as soluble guanylate cyclase activators” (Boehringer Ingelheim International GmbH, priority 2012, dated 2014).

Series [1] has as its target T1, human soluble guanylate cyclase alpha 1 and beta 1 subunits (sGC) (Homo sapiens, UniProt Q02108+Q02153).
T1 construct: expressed in transfected cells; host or cells: Chinese hamster ovary (CHO) cells, stably transfected
T1 sequence (Q02108 1-690): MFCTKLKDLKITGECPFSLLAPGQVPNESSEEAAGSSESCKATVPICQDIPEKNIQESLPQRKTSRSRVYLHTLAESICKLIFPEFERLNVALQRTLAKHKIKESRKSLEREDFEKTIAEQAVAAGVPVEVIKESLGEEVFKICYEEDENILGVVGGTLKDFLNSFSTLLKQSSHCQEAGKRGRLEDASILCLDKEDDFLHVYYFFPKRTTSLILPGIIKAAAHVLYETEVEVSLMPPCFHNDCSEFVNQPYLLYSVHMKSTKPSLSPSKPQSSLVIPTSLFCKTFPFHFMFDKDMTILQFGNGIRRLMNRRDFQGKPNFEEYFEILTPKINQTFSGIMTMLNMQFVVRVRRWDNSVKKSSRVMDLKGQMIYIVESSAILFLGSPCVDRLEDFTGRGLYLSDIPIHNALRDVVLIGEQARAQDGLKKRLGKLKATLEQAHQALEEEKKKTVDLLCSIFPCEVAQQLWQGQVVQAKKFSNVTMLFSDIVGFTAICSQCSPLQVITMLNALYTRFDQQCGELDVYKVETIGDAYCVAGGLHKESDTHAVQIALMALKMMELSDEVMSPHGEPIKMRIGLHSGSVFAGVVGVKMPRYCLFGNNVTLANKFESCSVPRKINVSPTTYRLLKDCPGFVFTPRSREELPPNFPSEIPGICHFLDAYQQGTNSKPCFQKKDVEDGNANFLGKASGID
T1 sequence (Q02153 1-619): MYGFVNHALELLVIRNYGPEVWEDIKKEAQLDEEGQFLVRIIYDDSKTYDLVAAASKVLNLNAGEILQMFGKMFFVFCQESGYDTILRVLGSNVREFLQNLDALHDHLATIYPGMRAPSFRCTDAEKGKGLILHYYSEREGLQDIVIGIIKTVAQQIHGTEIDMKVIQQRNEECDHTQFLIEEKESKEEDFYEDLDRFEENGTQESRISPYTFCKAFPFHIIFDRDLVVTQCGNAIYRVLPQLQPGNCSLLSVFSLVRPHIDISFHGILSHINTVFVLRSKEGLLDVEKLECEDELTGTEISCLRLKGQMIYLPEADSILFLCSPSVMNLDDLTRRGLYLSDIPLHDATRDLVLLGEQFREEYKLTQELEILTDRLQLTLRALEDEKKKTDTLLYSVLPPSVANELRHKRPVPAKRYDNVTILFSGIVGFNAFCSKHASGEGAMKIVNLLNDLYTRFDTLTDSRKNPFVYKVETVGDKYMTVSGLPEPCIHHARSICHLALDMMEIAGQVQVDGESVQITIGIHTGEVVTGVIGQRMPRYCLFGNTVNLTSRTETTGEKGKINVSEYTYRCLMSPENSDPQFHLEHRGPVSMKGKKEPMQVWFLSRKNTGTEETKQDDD
Nature of the series: sGC cellular activator assay (cGMP, HTRF). The note with it: CHO cells stably expressing human sGC alpha 1/beta 1, preincubated with 40 microM ODQ; cGMP readout; assay run with and without 50% human serum, Table 2 does not say which. In kind it is cell-based. In short, it runs like this: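 Heme-oxidized conditions: ODQ (40 microM, 1 h) pretreatment of CHO cells stably expressing human α1/β1 sGC, in buffer containing 0.1% BSA and IBMX.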
For orientation: TR-FRET usually uses a lanthanide donor and a delayed reading to cut background.

Series [2] in a line: human liver microsome (HLM) metabolic stability assay. In kind it is in vitro ADME. The note with it: human liver microsomes; % hepatic blood flow calculated from t1/2. In short, it runs like this: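 Compounds at 1 uM incubated with human liver microsomes plus NADPH at 37° C., sampled at 0, 5, 15, 30 and 60 min into cold acetonitrile and quantified by LC/MS/MS. t½ from the slope of ln % remaining vs time; CLint, CLh and % Qh derived from it (n=1).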

A value given as a limit tells only on which side of the number the result lay.

The EC50 is the concentration that produces a half-maximal response. A higher EC50 goes with weaker potency. As for `CCOc1c(C(=O)O)cnn1-c1cccc(-c2cccc(C)c2OCc2ccc3c(c2)CCN(C2CCOC(CC)C2)C3)n1` (centres unmarked) [Compound 79], the EC50 in series [1] was 33 nM. In addition, in series [2], the “HLM (% Qh)” value was less than 24 % Qh.

Molecule `COc1c(C(=O)O)cnn1-c1cccc(-c2cccc(C)c2OCc2ccc3c(c2C)CCN(CC(C)(C)C)C3)n1` [Compound 30] returned an EC50 in series [1] of 10 nM. For the same molecule, in series [2], the “HLM (% Qh)” value is less than 24 % Qh.

In turn, `COc1c(C(=O)O)cnn1-c1cccc(-c2cccc(C)c2OCc2ccc3c(c2)CCN(C2CC(C)(C)OC(C)(C)C2)C3)n1` [Compound 73] displayed an EC50 in series [1] of 250 nM. Further, the “HLM (% Qh)” value in series [2] is on record as 36 % Qh.

For `COc1c(C(=O)O)cnn1-c1cccc(-c2cccc(C)c2OCc2ccc3c(c2)C(C)(C)CN(C2CCOCC2)C3)n1` [Compound 89], the EC50 in series [1] amounted to 150 nM. Moreover, the “HLM (% Qh)” value in series [2] was 76 % Qh.
